Measured values: US10016382B2, “Method for decreasing skeletal muscle damage and/or oxidative stress in mammals” (LONZA INC., priority 2014, dated 2018)
“And” between values parts separate entries of the source, which are not always exact repeats. Equal entries are not always repeated.

Key:
Type in all cases: in vivo, dog
[1] = tested on: Labrador Retrievers; experiment: Time of final 15 mile run, Example 2 part one (14 week crossover study); conditions: Ex.2 part one, 250 mg/d, 15 mile run at end of 14 week study, mean ± SEM
Method: Part One: For part one of the study, fifty-six Labrador Retrievers were divided into two equal groups of 28 (14 males, 14 females) based on gender, BW, genetics, age, excitement level, frame size, and lean body mass. The dogs were out of a minimum of 10 different bitches and at least as many sires. Prior to the start of the study, the dogs were tested for lean mass, muscle damage, and antioxidant status as described in Example 1. In addition to the low carnitine basal diet, twenty-eight of the Labs received 250 mg/day of L-carnitine (batch D23013) and 3.75 g/d of sugar, while twenty-eight of the Labs received 4 g/d of sugar. Both the L-carnitine and control performance dogs were put through a weekly running program consisting of two evenly distributed endurance runs. Groups ranging between 6 and 10 dogs were run together, including both treatments in each group. The endurance runs increased incrementally by 0.5 miles per week (5 miles/session increasing to 10 miles per session over an 11 week period). The dogs were allowed a 1 day rest between runs and a 3 day rest before a scheduled exercise distance increase. The dogs were put through maintenance runs of 5 miles twice in the 12th week and then 2 miles twice in the 13th week. All dogs had at least 4 days of rest prior to the final 15 miles run in the 14th week. Each performance dog wore the Actical activity monitor and GPS tracking collar during the last 15 mile endurance run. The final run was conducted in a manner analogous to that of Example 1. All activity was accurately and precisely calculated using the GPS tracking monitors. Immediately following the 15 mile endurance run, each dog was placed in a kennel and evaluated for recovery time in body temperature (every 15 minutes for 2 hours) and heart rate (every 2 minutes for up to 20 minutes until basal beats per minute (BPM) was reached). Body temperature and heart rate were measured as described in Example 1.

[2] = tested on: Thiobarbituric acid reactive substances (TBARS); experiment: Serum TBARS (oxidative stress), Example 1; conditions: for TBARS, serum, Mean / Change in TBARS, post-run minus pre-run: Ex.1, 250 mg/d; for Change in TBARS, post-run minus pre-run: following 15 mile long run at 13 wk, mean ± SEM
Method: Blood Analysis: Serum samples were taken at three different times from each dog during the 90 day period. The blood samples were collected as follows: 1.) just prior to scanning each dog for body composition at the beginning of the study, 2.) prior to the long run on the 13th week, and 3.) following the long run on the 13th week. The serum samples were analyzed for Phosphocreatine Kinase and Canine Myoglobin to determine the amount of muscle protein leakage that occurred following the long run and TBARS and Total Antioxidant Capacity (TAC) were determined to evaluate the antioxidant status of each of the test dogs during the exercise program. The final blood sample was taken 24 hr after the long run to obtain maximum protein leakage based on previous similar types of exercise research with human athletes. Biomarkers and Assay Methods: Blood was drawn from each dog using a serum separator tube at three different times during the 90 day period: 1.) just prior to scanning each dog for body composition at the beginning of the study, 2.) prior to the long run on the 13th week, and 3.) following the long run on the 13th week. The final blood sample was taken 24 hr after the long run to obtain maximum protein leakage based on previous similar types of exercise research with human athletes. Each time after the blood was drawn it was allowed to clot before being centrifuged for 15 min at 2000 g at 4° C. Serum was aliquoted into 1.5 mL microcentrifuge tubes and stored at −80° C. until assays were ran following the end of the study. Creatine kinase (CK) and canine myoglobin were measured to determine the amount of muscle protein leakage that occurred following the long run. Thiobarbituric acid reactive substances (TBARS) and total antioxidant capacity (TAC) were measured to evaluate the antioxidant status of each of the test dogs during the exercise program. Serum samples were analyzed for total antioxidant capacity (TAC) and thiobarbituric acid reactive substances (TBARS) using commercially available colorimetric kits supplied by Cayman Chemical Company (Ann Arbor, Mich.) per manufacturer instructions. Serum canine myoglobin levels were determined using a commercially available ELISA supplied by Innovate Research (Novi, Mich.) per manufacturer instructions. Creatine kinase activity was determined colorimetrically using a commercially available kit supplied by BioVision (San Francisco, Calif.).

[3] = tested on: total antioxidant capacity (TAC); experiment: Serum total antioxidant capacity (TAC), Example 2 part one; conditions: for TAC: serum
Method: Twenty-four hours after test dogs ran the last 15 mile endurance run, serum samples were taken to evaluate biomarkers for muscle damage and antioxidant status. Blood samples were taken 1) just prior to the beginning of the study; 2) 1 day prior to running the final 15 mile run on the 14th week; 3) 1 hour immediately following the 15 mile run; and 4) 24 hours following the final 15 mile run. After a blood sample was drawn, it was allowed to clot for 30 minutes at 25° C. before being centrifuged for 15 minutes at 2000 g at 4° C. Serum was aliquoted into 0.65 mL microcentrifuge tubes and stored at −80° C. until being assayed at the end of the study for creatine kinase, canine myoglobin, thiobarbituric acid reactive substances (TBARS), and total antioxidant capacity (TAC) using the commercially available kits described in Example 1.

C[N+](C)(C)C[C@H](O)CC(=O)[O-] [L-carnitine]
Final Run Time ([1]; Female): 73.7 ± 0.86 min | Final Run Time ([1]; Male): 76.11 ± 1.64 min | Final Run Time ([1]; both sexes): 74.90 min and 74.9 ± 0.94 min | TBARS Least Sq Mean ([2]; Baseline): 12.53 μM MDA | TBARS Least Sq Mean ([2]; Baseline, F): 14.1 μM MDA | TBARS Least Sq Mean ([2]; Baseline, M): 10.96 μM MDA | TBARS, serum, Mean ([2]; Baseline, both sexes): 12.37 uM MDA | TBARS, serum, Mean ([2]; Baseline, females): 14.10 uM MDA | TBARS, serum, Mean ([2]; Baseline, males): 10.96 uM MDA | TBARS, serum, Mean ([2]; Post-run, both sexes): 12.59 uM MDA | TBARS, serum, Mean ([2]; Post-run, females): 14.47 uM MDA | TBARS, serum, Mean ([2]; Post-run, males): 11.06 uM MDA | TBARS, serum, Mean ([2]; Pre-run, both sexes): 12.18 uM MDA | TBARS, serum, Mean ([2]; Pre-run, females): 15.13 uM MDA | TBARS, serum, Mean ([2]; Pre-run, males): 9.77 uM MDA | Change in TBARS, post-run minus pre-run ([2]; both sexes): 0.41 μM MDA and 0.41 ± 0.71 n = 20 μM MDA | Change in TBARS, post-run minus pre-run ([2]; females): −0.7 ± 1.1 n = 9 μM MDA | Change in TBARS, post-run minus pre-run ([2]; males): 1.3 ± 0.9 n = 11 μM MDA | TBARS Least Sq Mean ([2]; Post-run): 12.76 μM MDA | TBARS Least Sq Mean ([2]; Post-run, F): 14.47 μM MDA | TBARS Least Sq Mean ([2]; Post-run, M): 11.06 μM MDA | TBARS Least Sq Mean ([2]; Pre-run): 12.45 μM MDA | TBARS Least Sq Mean ([2]; Pre-run, F): 15.13 μM MDA | TBARS Least Sq Mean ([2]; Pre-run, M): 9.77 μM MDA | TBARS Least Sq Mean ([2]; Treatment * Sex, F): 14.1 μM MDA | TBARS Least Sq Mean ([2]; Treatment * Sex, M): 10.96 μM MDA | TBARS Least Sq Mean ([2]; Treatment level, all dogs): 12.53 μM MDA | TBARS, mixed model Estimate, term Time[Post-run-Pre-run] * Treatment[L-carnitine] ([2]; serum, model term): −0.943 | TBARS, mixed model Estimate, term Time[Post-run-Pre-run] * Treatment[L-carnitine] * Sex[F] ([2]; serum, model term): −0.763 | TBARS, mixed model Estimate, term Time[Pre-run-Baseline] * Treatment[L-carnitine] ([2]; serum, model term): 0.8244 | TBARS, mixed model Estimate, term Time[Pre-run-Baseline] * Treatment[L-carnitine] * Sex[F] ([2]; serum, model term): 0.2021 | TBARS, mixed model Estimate, term Treatment[L-carnitine] ([2]; serum, model term): −0.5222 | TBARS, mixed model Estimate, term Treatment[L-carnitine] * Sex[F] ([2]; serum, model term): 0.4031 | TAC levels, serum ([3]; Ex.2 part one, 250 mg/d, post-run 24-hr): 0.16 mM Trolox equiv | TAC ([3]; FEMALES, Baseline): 0.15 ± 0.01 mM Trolox Equiv | TAC ([3]; FEMALES, Post-Run 1 Hr): 0.15 ± 0.01 mM Trolox Equiv | TAC ([3]; FEMALES, Post-Run 24 Hr): 0.16 ± 0.01 mM Trolox Equiv | TAC ([3]; FEMALES, Pre-Run): 0.13 ± 0.01 mM Trolox Equiv | TAC ([3]; MALES, Baseline): 0.18 ± 0.01 mM Trolox Equiv | TAC ([3]; MALES, Post-Run 1 Hr): 0.16 ± 0.01 mM Trolox Equiv | TAC ([3]; MALES, Post-Run 24 Hr): 0.16 ± 0.01 mM Trolox Equiv | TAC ([3]; MALES, Pre-Run): 0.15 ± 0.01 mM Trolox Equiv | TAC ([3]; Whole Groups, Baseline): 0.17 ± 0.01 mM Trolox Equiv | TAC ([3]; Whole Groups, Post-Run 1 Hr, Post-Run 1 Hr): 0.15 ± 0.01 mM Trolox Equiv | TAC ([3]; Whole Groups, Post-Run 24 Hr, Post-Run 24 Hr): 0.16 ± 0.01 mM Trolox Equiv | TAC ([3]; Whole Groups, Pre-Run): 0.14 ± 0.01 mM Trolox Equiv
